Experimental data as given in ChEMBL document CHEMBL1201862, “PubChem BioAssay data set” (2004).
Active and inactive are the calls of the source.

How the values were obtained:
[1] = target: 26S proteasome non-ATPase regulatory subunit 14 (Homo sapiens, UniProt O00487); assay: inhibition of proteasome subunit RPN11 – biochemical, fluorescence polarization, uHTS hits, confirmation (AID 602368); type: functional
[2] = CFTR ΔF508 corrector activity in bronchial cells, dose response, human bronchial epithelial cells, plate reader, cherry-pick, two tests (AID 743267); type: functional, cell-based
Prothrombin = Prothrombin (Bos taurus, UniProt P00735); assay: thrombin inhibition, dose response, biochemical, fluorescence polarization, uHTS hits (AID 602369); type: functional
[3] = target: 72 kDa type IV collagenase (Homo sapiens, UniProt P08253); assay: Dose Response validation of uHTS RPN11 inhibitor hits using a MMP-2 Fluorescence assay.; type: functional
[4] = target: T1, Rac GTPase-activating protein 1 (Homo sapiens, UniProt Q9H0H5); assay: MgcRacGAP GTPase-activating activity inhibitors, confirmation, biochemical, ADP Hunter fluorescence, primary and confirmatory (AID 624330); type: functional
T1 sequence (Q9H0H5 whole entry): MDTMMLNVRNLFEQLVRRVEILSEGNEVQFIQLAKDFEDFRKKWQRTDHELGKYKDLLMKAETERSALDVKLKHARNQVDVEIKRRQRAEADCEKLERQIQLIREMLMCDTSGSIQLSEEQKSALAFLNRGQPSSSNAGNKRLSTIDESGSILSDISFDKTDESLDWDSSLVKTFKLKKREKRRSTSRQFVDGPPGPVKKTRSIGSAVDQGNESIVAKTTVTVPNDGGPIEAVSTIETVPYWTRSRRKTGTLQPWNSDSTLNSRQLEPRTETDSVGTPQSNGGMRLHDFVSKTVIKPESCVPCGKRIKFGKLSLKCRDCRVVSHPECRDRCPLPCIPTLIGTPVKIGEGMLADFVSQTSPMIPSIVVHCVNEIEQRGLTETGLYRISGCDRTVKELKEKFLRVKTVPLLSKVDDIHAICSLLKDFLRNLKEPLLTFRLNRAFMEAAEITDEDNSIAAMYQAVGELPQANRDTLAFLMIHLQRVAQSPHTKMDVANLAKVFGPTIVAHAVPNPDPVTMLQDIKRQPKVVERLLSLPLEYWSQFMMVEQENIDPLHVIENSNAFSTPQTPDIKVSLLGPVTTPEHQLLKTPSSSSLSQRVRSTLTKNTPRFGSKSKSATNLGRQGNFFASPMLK

Aminopeptidase N = target: T2, Aminopeptidase N (Plasmodium falciparum FcB1/Columbia, UniProt O96935); assay: P. falciparum M1AAP inhibitors, biochemical, fluorogenic H-Leu-NHMec substrate, 1536-well (AID 1445); parameters: species or system Plasmodium falciparum 3D7, 3D7
T2 sequence (O96935 whole entry): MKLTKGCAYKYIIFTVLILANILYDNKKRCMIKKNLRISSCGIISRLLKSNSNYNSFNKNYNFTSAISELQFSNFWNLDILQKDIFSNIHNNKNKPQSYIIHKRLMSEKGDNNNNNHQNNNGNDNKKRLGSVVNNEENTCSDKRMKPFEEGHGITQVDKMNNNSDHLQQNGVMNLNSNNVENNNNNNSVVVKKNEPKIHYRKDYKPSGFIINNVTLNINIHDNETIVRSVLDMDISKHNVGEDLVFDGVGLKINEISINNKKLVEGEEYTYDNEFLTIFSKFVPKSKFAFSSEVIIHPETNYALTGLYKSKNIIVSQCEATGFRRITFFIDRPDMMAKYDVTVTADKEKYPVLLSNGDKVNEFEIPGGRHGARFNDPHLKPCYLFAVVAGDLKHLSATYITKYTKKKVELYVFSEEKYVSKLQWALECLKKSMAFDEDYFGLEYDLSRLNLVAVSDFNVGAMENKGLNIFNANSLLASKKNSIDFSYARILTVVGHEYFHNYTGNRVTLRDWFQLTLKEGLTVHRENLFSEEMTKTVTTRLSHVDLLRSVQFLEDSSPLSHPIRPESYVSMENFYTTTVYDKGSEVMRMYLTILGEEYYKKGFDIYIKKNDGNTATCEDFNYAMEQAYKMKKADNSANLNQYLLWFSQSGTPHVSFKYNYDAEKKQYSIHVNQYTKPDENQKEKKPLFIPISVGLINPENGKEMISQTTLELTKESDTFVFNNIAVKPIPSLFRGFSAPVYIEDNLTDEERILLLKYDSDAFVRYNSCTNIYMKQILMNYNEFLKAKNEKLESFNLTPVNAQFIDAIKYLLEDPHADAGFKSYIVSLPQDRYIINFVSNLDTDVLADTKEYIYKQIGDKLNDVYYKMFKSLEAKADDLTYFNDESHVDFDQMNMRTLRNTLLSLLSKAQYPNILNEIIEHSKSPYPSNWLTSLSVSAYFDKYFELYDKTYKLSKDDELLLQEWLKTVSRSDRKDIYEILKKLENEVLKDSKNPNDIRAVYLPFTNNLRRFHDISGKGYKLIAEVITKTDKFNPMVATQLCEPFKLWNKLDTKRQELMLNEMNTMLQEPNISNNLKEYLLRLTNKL

[5] = target: Death-associated protein kinase 3 (Homo sapiens, UniProt O43293); type: functional;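 also: measured as one member of a kinome-wide profiling panel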
[6] = target: Tyrosine-protein kinase receptor TYRO3 (Homo sapiens, UniProt Q06418); type: functional;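 also: TYRO3 value obtained as one member of a kinome-wide profiling panel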
Activin receptor type-1 = target: T3, Activin receptor type-1 (Homo sapiens, UniProt Q04771); assay: Navigating the Kinome. Panel member name: ACVR1; type: functional
T3 sequence (Q04771 whole entry): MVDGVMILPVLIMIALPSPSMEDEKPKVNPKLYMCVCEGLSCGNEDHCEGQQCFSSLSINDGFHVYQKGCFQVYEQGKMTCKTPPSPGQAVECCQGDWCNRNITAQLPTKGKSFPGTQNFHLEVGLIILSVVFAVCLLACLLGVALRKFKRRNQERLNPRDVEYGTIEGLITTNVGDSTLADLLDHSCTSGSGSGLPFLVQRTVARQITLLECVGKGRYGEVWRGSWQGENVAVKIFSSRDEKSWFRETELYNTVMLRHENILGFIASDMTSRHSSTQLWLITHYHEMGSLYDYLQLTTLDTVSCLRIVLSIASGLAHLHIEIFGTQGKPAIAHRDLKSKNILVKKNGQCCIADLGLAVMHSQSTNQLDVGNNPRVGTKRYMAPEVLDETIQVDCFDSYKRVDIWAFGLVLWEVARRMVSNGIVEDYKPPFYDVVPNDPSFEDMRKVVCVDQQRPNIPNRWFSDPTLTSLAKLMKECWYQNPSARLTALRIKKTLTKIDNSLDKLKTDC

Focal adhesion kinase 1 = Focal adhesion kinase 1 (Homo sapiens, UniProt Q05397); type: functional;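 also: measured as one member of a kinome panel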
[7] = target: Cyclin-dependent kinase 8 (Homo sapiens, UniProt P49336); assay: Navigating the Kinome. Panel member name: CDK8; type: functional
[8] = target: cAMP-dependent protein kinase catalytic subunit PRKX (Homo sapiens, UniProt P51817); type: functional
cAMP-dependent protein kinase catalytic subunit PRKX, sequence (P51817 whole entry): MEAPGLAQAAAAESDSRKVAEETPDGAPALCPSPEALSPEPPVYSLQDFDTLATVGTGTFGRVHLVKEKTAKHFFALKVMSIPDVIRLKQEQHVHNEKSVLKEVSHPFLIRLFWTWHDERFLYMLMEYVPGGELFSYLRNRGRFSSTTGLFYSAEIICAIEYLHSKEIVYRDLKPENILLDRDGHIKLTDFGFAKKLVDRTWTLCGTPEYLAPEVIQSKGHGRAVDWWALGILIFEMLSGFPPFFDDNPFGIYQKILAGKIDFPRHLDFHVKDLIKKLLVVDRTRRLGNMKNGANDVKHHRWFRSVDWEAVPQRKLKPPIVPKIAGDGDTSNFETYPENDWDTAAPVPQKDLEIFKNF

[9] = target: Proto-oncogene tyrosine-protein kinase receptor Ret (Homo sapiens, UniProt P07949); type: functional;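 also: measured within a kinome-wide profiling panel, RET as the panel member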
[10] = target: Leucine-rich repeat serine/threonine-protein kinase 2 (Homo sapiens, UniProt Q5S007); type: functional;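 also: value from a broad kinome-wide panel profiling study in which LRRK2 was one of the kinases tested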
[11] = target: Dual specificity tyrosine-phosphorylation-regulated kinase 1B (Homo sapiens, UniProt Q9Y463); assay: Navigating the Kinome. Panel member name: DYRK1B; type: functional
Dual specificity tyrosine-phosphorylation-regulated kinase 1B, sequence (Q9Y463 whole entry): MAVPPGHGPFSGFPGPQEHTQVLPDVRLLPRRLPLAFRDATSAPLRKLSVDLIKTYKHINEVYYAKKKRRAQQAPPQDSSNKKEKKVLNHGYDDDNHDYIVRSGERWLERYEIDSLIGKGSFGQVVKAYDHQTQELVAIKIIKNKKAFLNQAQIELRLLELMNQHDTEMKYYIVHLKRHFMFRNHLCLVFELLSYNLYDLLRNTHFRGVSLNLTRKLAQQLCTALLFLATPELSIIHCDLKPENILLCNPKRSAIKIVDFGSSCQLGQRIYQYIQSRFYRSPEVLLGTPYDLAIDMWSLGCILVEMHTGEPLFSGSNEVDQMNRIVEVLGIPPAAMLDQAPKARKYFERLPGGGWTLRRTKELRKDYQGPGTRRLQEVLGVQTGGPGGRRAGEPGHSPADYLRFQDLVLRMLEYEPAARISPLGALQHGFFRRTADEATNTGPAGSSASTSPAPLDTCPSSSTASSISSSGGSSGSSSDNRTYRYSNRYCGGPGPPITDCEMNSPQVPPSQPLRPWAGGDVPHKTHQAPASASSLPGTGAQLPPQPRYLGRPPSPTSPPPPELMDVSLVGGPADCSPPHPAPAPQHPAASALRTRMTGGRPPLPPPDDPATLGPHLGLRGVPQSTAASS

[12] = target: Leukocyte tyrosine kinase receptor (Homo sapiens, UniProt P29376); assay: Navigating the Kinome. Panel member name: LTK; type: functional
Leukocyte tyrosine kinase receptor, sequence (P29376 whole entry): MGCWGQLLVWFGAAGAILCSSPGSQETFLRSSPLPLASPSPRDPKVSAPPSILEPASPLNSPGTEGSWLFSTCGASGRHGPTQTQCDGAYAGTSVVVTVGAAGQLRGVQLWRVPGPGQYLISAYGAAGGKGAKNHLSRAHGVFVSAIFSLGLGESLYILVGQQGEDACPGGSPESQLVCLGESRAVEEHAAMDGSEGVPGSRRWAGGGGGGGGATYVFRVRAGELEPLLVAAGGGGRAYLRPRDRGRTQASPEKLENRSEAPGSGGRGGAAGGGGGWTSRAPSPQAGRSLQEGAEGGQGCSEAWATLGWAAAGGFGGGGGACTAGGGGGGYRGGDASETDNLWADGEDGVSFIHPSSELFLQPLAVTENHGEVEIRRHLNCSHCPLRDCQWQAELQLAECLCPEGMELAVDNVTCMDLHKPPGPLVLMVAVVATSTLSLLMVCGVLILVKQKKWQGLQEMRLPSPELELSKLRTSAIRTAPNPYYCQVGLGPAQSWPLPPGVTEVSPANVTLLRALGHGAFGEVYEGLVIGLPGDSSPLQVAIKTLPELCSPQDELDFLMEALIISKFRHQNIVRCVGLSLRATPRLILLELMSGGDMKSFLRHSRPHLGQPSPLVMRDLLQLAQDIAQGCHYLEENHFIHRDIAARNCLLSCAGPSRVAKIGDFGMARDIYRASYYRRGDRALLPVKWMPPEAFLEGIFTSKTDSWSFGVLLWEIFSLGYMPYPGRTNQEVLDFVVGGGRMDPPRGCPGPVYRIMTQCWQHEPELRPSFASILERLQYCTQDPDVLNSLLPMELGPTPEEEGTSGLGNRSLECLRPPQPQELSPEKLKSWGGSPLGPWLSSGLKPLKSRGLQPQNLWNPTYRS

[13] = target: Dual specificity protein kinase CLK4 (Homo sapiens, UniProt Q9HAZ1); type: functional
Dual specificity protein kinase CLK4, sequence (Q9HAZ1 whole entry, canonical isoform): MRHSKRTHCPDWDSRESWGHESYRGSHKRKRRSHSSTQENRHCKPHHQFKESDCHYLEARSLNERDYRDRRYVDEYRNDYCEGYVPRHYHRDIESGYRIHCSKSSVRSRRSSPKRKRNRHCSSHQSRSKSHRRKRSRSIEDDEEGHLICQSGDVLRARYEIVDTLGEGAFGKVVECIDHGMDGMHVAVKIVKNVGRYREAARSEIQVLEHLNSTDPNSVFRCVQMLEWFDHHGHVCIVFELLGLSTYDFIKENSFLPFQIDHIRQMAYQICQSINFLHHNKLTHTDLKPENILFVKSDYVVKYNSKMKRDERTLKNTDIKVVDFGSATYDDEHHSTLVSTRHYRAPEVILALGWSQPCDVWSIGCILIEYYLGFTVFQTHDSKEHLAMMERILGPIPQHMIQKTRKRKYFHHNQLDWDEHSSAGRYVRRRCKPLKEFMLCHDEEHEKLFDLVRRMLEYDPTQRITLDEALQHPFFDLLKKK

[14] = target: Casein kinase I isoform alpha (Homo sapiens, UniProt P48729); type: functional
Casein kinase I isoform alpha, sequence (P48729 whole entry, canonical isoform): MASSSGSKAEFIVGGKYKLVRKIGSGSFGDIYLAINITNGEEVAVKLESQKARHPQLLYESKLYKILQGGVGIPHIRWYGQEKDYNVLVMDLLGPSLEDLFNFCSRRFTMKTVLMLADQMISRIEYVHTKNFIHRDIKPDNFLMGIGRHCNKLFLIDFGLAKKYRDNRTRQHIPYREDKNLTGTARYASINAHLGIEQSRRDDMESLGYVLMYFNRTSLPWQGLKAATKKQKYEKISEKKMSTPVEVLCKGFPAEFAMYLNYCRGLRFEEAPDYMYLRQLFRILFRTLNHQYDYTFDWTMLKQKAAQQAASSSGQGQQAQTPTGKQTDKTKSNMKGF

[15] = target: Serine/threonine-protein kinase pim-1 (Homo sapiens, UniProt P11309); type: functional
[16] = target: Dual specificity tyrosine-phosphorylation-regulated kinase 1A (Homo sapiens, UniProt Q13627); type: functional;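 also: measured against DYRK1A as one member of a broad kinome profiling panel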
[17] = target: Serine/threonine-protein kinase Chk1 (Homo sapiens, UniProt O14757); type: functional;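 also: measured as one member of a kinome-wide kinase profiling panel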
[18] = target: Cyclin-dependent kinase 5 (Homo sapiens, UniProt Q00535); type: functional;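 also: CDK5 measured as one member of a kinase profiling panel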
Cyclin-dependent kinase 5, sequence (Q00535 whole entry, the tested form may be a part): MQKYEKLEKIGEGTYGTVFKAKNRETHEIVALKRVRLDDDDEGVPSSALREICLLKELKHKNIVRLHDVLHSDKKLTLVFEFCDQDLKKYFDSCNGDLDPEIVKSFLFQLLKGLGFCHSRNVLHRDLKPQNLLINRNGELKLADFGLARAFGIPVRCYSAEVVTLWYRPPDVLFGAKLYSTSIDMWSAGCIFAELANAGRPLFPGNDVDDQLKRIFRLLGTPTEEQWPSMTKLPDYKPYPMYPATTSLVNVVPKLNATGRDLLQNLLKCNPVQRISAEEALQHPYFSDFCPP

LIM domain kinase 1 = LIM domain kinase 1 (Homo sapiens, UniProt P53667); assay: Navigating the Kinome. Panel member name: LIMK1; type: functional
LIM domain kinase 1, sequence (P53667 whole entry, the tested form may be a part): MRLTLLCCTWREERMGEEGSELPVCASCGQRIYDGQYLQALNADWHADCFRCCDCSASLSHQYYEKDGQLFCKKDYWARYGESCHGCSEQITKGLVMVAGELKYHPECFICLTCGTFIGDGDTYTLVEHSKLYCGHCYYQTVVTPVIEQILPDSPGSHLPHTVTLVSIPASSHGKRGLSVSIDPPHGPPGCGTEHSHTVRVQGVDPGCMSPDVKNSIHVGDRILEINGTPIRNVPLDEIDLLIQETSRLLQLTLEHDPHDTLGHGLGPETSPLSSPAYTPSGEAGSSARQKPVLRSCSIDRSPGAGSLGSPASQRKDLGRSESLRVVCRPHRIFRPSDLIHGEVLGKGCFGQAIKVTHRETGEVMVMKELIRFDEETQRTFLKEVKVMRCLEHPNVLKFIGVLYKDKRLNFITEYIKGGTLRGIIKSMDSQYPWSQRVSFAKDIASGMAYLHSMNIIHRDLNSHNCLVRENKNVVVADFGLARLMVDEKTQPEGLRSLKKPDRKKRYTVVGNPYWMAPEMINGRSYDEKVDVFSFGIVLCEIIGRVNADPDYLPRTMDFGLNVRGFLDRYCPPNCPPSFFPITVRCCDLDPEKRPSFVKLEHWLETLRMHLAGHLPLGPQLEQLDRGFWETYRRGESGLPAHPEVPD

[19] = target: 5'-AMP-activated protein kinase catalytic subunit alpha-1 (Homo sapiens, UniProt Q13131); type: functional
[20] = target: Mitogen-activated protein kinase 13 (Homo sapiens, UniProt O15264); type: functional
[21] = target: Macrophage colony-stimulating factor 1 receptor (Homo sapiens, UniProt P07333); type: functional;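 also: value comes from the Navigating the Kinome screening panel, CSF1R member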
[22] = target: Mitogen-activated protein kinase 8 (Homo sapiens, UniProt P45983); type: functional;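 also: value comes from one member of a kinome-wide kinase profiling panel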
Activated CDC42 kinase 1 = Activated CDC42 kinase 1 (Homo sapiens, UniProt Q07912); assay: Navigating the Kinome. Panel member name: ACK1; type: functional
[23] = target: Vascular endothelial growth factor receptor 2 (Homo sapiens, UniProt P35968); type: functional
Vascular endothelial growth factor receptor 2, sequence (P35968 whole entry): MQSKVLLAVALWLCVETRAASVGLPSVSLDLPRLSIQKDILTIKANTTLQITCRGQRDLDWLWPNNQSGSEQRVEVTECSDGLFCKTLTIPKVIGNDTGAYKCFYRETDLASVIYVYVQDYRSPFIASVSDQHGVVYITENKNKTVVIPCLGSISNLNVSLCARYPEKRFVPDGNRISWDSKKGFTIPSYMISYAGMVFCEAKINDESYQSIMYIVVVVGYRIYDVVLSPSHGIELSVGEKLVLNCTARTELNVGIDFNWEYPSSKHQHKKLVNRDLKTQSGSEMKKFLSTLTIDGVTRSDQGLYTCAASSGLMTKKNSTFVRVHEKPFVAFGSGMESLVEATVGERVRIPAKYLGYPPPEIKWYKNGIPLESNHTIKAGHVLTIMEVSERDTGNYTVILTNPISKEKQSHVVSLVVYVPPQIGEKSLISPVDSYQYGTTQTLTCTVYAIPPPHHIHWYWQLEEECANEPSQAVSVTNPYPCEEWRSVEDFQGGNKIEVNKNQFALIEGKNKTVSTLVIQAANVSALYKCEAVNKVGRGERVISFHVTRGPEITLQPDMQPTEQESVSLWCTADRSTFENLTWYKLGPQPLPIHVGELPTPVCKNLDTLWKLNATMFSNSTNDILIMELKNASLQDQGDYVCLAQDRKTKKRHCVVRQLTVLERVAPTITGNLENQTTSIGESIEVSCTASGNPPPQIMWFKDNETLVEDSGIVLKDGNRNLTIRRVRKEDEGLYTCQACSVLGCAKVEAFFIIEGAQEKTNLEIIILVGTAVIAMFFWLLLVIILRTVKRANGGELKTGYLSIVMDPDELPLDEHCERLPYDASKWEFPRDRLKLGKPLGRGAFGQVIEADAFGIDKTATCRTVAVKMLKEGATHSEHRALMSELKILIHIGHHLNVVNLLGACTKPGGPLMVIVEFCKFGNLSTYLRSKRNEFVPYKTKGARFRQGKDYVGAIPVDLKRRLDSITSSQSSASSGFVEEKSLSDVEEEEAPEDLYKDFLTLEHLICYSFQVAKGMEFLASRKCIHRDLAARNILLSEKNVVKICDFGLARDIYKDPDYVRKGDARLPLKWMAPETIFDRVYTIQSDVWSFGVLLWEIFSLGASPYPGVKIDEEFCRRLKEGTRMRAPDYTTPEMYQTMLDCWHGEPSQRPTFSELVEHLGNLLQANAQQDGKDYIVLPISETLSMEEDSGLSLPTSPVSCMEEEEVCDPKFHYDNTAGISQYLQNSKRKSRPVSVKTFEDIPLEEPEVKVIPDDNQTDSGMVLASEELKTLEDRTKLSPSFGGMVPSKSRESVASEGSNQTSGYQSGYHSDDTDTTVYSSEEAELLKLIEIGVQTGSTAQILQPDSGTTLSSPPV

[24] = target: Mitogen-activated protein kinase kinase kinase kinase 4 (Homo sapiens, UniProt O95819); type: functional
[25] = target: Platelet-derived growth factor receptor alpha (Homo sapiens, UniProt P16234); assay: Navigating the Kinome. Panel member name: PDGFRA; type: functional
Aurora kinase B = Aurora kinase B (Homo sapiens, UniProt Q96GD4); type: functional
[26] = target: Fibroblast growth factor receptor 1 (Homo sapiens, UniProt P11362); type: functional

**Q.** With `CCOc1cc(/C=C2\C(=N)N3N=C(S(=O)(=O)CC)SC3=NC2=O)ccc1O` as the compound, how does the IC50 [1] read?
**A.** 28.6 µM (active)

**Q.** What about the AC50 [2] of the same compound?
**A.** 24.9 µM (active)

**Q.** What about the IC50 (Prothrombin) of the same compound?
**A.** 34.8 µM (active)

**Q.** What about the IC50 [3] of the same compound?
**A.** > 100 µM (inactive)

**Q.** And the IC50 [4]?
**A.** 79.6 µM (active)

**Q.** What about the IC50 (Aminopeptidase N) of the same compound?
**A.** 55.7 µM (active)

**Q.** For `O=C1NS(=O)(=O)c2ccc(Cl)cc21`, which Ki [5] is on record?
**A.** 31.6 µM (active)

**Q.** What about the Ki [6] of the same compound?
**A.** 20 µM (active)

**Q.** And the Ki (Activin receptor type-1)?
**A.** 79.4 µM (active)

**Q.** And the Ki (Focal adhesion kinase 1)?
**A.** 79.4 µM (active)

**Q.** What about the Ki [7] of the same compound?
**A.** 63.1 µM (active)

**Q.** And the Ki [8]?
**A.** 63.1 µM (active)

**Q.** What about the Ki [9] of the same compound?
**A.** 100 µM (active)

**Q.** What about the Ki [10] of the same compound?
**A.** 50.1 µM (active)

**Q.** And the Ki [11]?
**A.** 20 µM (active)

**Q.** What about the Ki [12] of the same compound?
**A.** 31.6 µM (active)

**Q.** And the Ki [13]?
**A.** 63.1 µM (active)

**Q.** And the Ki [14]?
**A.** 100 µM (active)

**Q.** What about the Ki [15] of the same compound?
**A.** 79.4 µM (active)

**Q.** And the Ki [16]?
**A.** 20 µM (active)

**Q.** And the Ki [17]?
**A.** 79.4 µM (active)

**Q.** What about the Ki [18] of the same compound?
**A.** 50.1 µM (active)

**Q.** And the Ki (LIM domain kinase 1)?
**A.** 25.1 µM (active)

**Q.** And the Ki [19]?
**A.** 50.1 µM (active)

**Q.** Which Ki [20] does the source give for `O=S(=O)(NCCNCC=Cc1ccc(Br)cc1)c1cccc2cnccc12` here?
**A.** > 7.94 µM (inactive)

**Q.** Which results are given for `Nc1n[nH]c2c(-c3ccccc3)cccc12`?
**A.** Ki (Activin receptor type-1): 79.4 µM (active); Ki [21]: 63.1 µM (active); Ki [22]: 15.8 µM (active); Ki (Activated CDC42 kinase 1): 79.4 µM (active); Ki [11]: 50.1 µM (active); Ki [12]: 50.1 µM (active); Ki [23]: 50.1 µM (active); Ki [13]: 79.4 µM (active); Ki [24]: 25.1 µM (active); Ki [14]: 39.8 µM (active); Ki [25]: 50.1 µM (active); Ki [18]: 50.1 µM (active); Ki (Aurora kinase B): 79.4 µM (active); Ki (LIM domain kinase 1): 63.1 µM (active); Ki [26]: 79.4 µM (active)
